Laboratory results reported in PubChem BioAssay (NCI).
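Following 48 hours of exposure in 96-well plates, responses at five concentrations were used to interpolate endpoints linearly. The concentration for 50% growth inhibition is given as GI50. TGI marks complete inhibition of growth.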

What was measured:
Experiment in all cases: NCI-60 cell line screen, 48 h
[1] = system: 786-0 renal
[2] = system: A498 renal
[3] = system: A549 NSCLC
[4] = system: ACHN renal
[5] = system: BT-549 breast
[6] = system: CAKI-1 renal
[7] = system: CCRF-CEM leukemia
[8] = system: COLO 205 colon
[9] = system: DU-145 prostate
[10] = system: EKVX NSCLC
[11] = system: HCC-2998 colon
[12] = system: HCT-116 colon
[13] = system: HCT-15 colon
[14] = system: HL-60(TB) leukemia
[15] = system: HOP-62 NSCLC
[16] = system: HOP-92 NSCLC
[17] = system: HS 578T breast
[18] = system: HT29 colon
[19] = system: IGROV1 ovarian
[20] = system: K-562 leukemia
[21] = system: KM12 colon
[22] = system: LOX IMVI melanoma
[23] = system: M14 melanoma
[24] = system: MALME-3M melanoma
[25] = system: MCF7 breast
[26] = system: MDA-MB-231 breast
[27] = system: MDA-MB-435
[28] = system: MDA-MB-468 breast
[29] = system: MOLT-4 leukemia

**Q.** Which GI50 [1] does the source give for `COc1cc(CNC(=O)/C=C/c2ccc3c(c2)OCO3)ccc1OCc1cn(-c2cccc(C(F)(F)F)c2)nn1` here?
**A.** 6.2 µM

**Q.** And the TGI [1]?
**A.** 19.2 µM

**Q.** And the GI50 [2]?
**A.** 5.32 µM

**Q.** What about the TGI [2] of the same compound?
**A.** 19.1 µM

**Q.** And the GI50 [3]?
**A.** 3.71 µM

**Q.** And the TGI [3]?
**A.** 15.9 µM

**Q.** And the GI50 [4]?
**A.** 5.24 µM

**Q.** And the TGI [4]?
**A.** 18.5 µM

**Q.** And the GI50 [5]?
**A.** 4.83 µM

**Q.** And the TGI [5]?
**A.** 19.3 µM

**Q.** What about the GI50 [6] of the same compound?
**A.** 5.39 µM

**Q.** And the TGI [6]?
**A.** 18.5 µM

**Q.** And the GI50 [7]?
**A.** 32.1 µM

**Q.** And the TGI [7]?
**A.** > 100 µM

**Q.** What about the GI50 [8] of the same compound?
**A.** 10.4 µM

**Q.** And the TGI [8]?
**A.** 25 µM

**Q.** And the GI50 [9]?
**A.** 10.7 µM

**Q.** And the TGI [9]?
**A.** 28.4 µM

**Q.** And the GI50 [10]?
**A.** 13.1 µM

**Q.** And the TGI [10]?
**A.** 29.5 µM

**Q.** What about the GI50 [11] of the same compound?
**A.** 10.1 µM

**Q.** And the TGI [11]?
**A.** 23.7 µM

**Q.** What about the GI50 [12] of the same compound?
**A.** 3.83 µM

**Q.** And the TGI [12]?
**A.** 14.9 µM

**Q.** What about the GI50 [13] of the same compound?
**A.** 5.19 µM

**Q.** And the TGI [13]?
**A.** 26.6 µM

**Q.** And the GI50 [14]?
**A.** 23.6 µM

**Q.** What about the TGI [14] of the same compound?
**A.** > 100 µM

**Q.** And the GI50 [15]?
**A.** 7.29 µM

**Q.** What about the TGI [15] of the same compound?
**A.** 26 µM

**Q.** What about the GI50 [16] of the same compound?
**A.** 2.61 µM

**Q.** And the TGI [16]?
**A.** 8.28 µM

**Q.** What about the GI50 [17] of the same compound?
**A.** 4.39 µM

**Q.** What about the TGI [17] of the same compound?
**A.** 24.8 µM

**Q.** What about the GI50 [18] of the same compound?
**A.** 14.9 µM

**Q.** What about the TGI [18] of the same compound?
**A.** 36.1 µM

**Q.** And the GI50 [19]?
**A.** 15.3 µM

**Q.** And the TGI [19]?
**A.** 32.7 µM

**Q.** And the GI50 [20]?
**A.** 17.5 µM

**Q.** What about the TGI [20] of the same compound?
**A.** > 100 µM

**Q.** And the GI50 [21]?
**A.** 15.5 µM

**Q.** What about the TGI [21] of the same compound?
**A.** 43 µM

**Q.** And the GI50 [22]?
**A.** 4.75 µM

**Q.** What about the TGI [22] of the same compound?
**A.** 19 µM

**Q.** What about the GI50 [23] of the same compound?
**A.** 10.4 µM

**Q.** What about the TGI [23] of the same compound?
**A.** 23.3 µM

**Q.** What about the GI50 [24] of the same compound?
**A.** 2.44 µM

**Q.** And the TGI [24]?
**A.** 9.61 µM

**Q.** And the GI50 [25]?
**A.** 4.23 µM

**Q.** And the TGI [25]?
**A.** 22 µM

**Q.** And the GI50 [26]?
**A.** 4.58 µM

**Q.** What about the TGI [26] of the same compound?
**A.** 17.1 µM

**Q.** What about the GI50 [27] of the same compound?
**A.** 8.25 µM

**Q.** And the TGI [27]?
**A.** 23.2 µM

**Q.** What about the GI50 [28] of the same compound?
**A.** 10 µM

**Q.** And the TGI [28]?
**A.** 22.8 µM

**Q.** And the GI50 [29]?
**A.** 10.1 µM

**Q.** What about the TGI [29] of the same compound?
**A.** > 100 µM
